Results published in US20240116910A1, “Heterocycles as WIP1 Inhibitors” (PMV Pharmaceuticals, Inc., priority 2022, published 2024).

Tests used:
[1] = target: recombinant His-tag Wip1 full length protein (amino acids #1-605) (Homo sapiens (Human), UniProt O15297); experiment: Wip1 full length phosphatase enzyme FDP assay; type: biochemical; conditions: fluorescein diphosphate (FDP) substrate, RT 2 hours, fluorescence Ex485/Em535
[2] = target: recombinant His-tag Wip1(2-420) protein (amino acids #2-420) (Homo sapiens (Human), UniProt O15297); experiment: Wip1(2-420) phosphatase enzyme FDP assay; type: biochemical; conditions: fluorescein diphosphate (FDP) substrate, RT 2 hours, fluorescence Ex485/Em535; read-out: WIP1 (Truncated 2-420) FDP Assay: IC50
Chain of recombinant His-tag Wip1(2-420) protein (amino acids #2-420) (O15297 2-420): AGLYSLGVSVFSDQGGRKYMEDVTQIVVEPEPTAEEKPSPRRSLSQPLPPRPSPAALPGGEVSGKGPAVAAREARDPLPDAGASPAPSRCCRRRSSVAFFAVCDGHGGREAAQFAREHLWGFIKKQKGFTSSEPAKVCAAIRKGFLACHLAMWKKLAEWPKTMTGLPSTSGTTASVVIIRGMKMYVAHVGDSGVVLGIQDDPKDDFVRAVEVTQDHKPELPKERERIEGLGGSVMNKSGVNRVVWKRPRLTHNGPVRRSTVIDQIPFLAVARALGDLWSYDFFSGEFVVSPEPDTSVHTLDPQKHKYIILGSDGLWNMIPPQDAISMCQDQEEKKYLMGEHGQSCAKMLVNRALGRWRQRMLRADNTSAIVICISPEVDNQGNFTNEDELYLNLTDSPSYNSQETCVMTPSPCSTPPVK

Chain of recombinant His-tag Wip1 full length protein (amino acids #1-605) (O15297 whole entry, the tested form may be a part): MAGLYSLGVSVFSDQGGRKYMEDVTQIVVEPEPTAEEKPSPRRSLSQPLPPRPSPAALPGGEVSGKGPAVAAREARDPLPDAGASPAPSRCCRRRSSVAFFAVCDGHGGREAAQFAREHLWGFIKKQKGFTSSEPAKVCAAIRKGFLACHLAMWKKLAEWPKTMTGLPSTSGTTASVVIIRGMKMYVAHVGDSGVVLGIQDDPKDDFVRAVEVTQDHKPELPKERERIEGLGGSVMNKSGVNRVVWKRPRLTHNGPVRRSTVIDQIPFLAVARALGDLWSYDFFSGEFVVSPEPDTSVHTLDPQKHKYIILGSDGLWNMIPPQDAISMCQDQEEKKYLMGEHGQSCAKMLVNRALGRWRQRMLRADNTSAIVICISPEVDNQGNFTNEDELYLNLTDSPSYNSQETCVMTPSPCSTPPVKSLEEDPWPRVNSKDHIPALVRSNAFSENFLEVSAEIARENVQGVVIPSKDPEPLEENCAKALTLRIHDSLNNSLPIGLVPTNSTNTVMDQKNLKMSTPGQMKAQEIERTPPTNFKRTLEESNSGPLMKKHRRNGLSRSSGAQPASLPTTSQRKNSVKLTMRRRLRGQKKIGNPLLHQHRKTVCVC

IC50 [1]	IC50 [2]	SMILES
10 nM	8 nM	Cc1ncc(Cl)cc1N[C@@H](C)c1ccc(C(=O)N[C@@H](CC2CCCC2)C(=O)NC23CC(O)(C2)C3)s1 [Compound 20, (2S)-2-({5-[(1S)-1-[(5-chloro-2-methylpyridin-3-yl)amino]ethyl]thiophen-2-yl}formamido)-3-cyclopentyl-N-{3-hydroxybicyclo[1.1.1]pentan-1-yl}propanamide]
27 nM	21 nM	CNC(=O)[C@H](CC1CCCC1)NC(=O)c1ccc([C@H](C)Nc2cc(Cl)cnc2C)s1 [Compound 74, (2S)-2-({5-[(1S)-1-[(5-chloro-2-methylpyridin-3-yl)amino]ethyl]thiophen-2-yl}formamido)-3-cyclopentyl-N-methylpropanamide]
9 nM	6 nM	C[C@H](Nc1ccc(F)c(Cl)c1)c1ccc(C(=O)N[C@@H](CC2CCCC2)C(=O)NC2CC2)s1 [Compound 6, 5-[(1S)-1-(3-chloro-4-fluoro-anilino)ethyl]-N-[(1S)-1-(cyclopentylmethyl)-2-(cyclopropylamino)-2-oxo-ethyl]thiophene-2-carboxamide]
215 nM	127 nM	C[C@@H](Nc1cc(Cl)cnc1C1CC1)c1ccc(C(=O)N[C@@H](CC2CCCC2)C(=O)NC2CC2)s1 [Compound 71, (2S)-2-({5-[(1R)-1-[(5-chloro-2-cyclopropylpyridin-3-yl)amino]ethyl]thiophen-2-yl}formamido)-3-cyclopentyl-N-cyclopropylpropanamide]
8 nM	4 nM	Cc1cc(NC(=O)[C@H](CC2CCCC2)NC(=O)c2ccc([C@H](C)Nc3cc(Cl)cnc3C)s2)ccn1 [Compound 73, (2S)-2-({5-[(1S)-1-[(5-chloro-2-methylpyridin-3-yl)amino]ethyl]thiophen-2-yl}formamido)-3-cyclopentyl-N-(2-methylpyridin-4-yl)propanamide]
